Experimental data reported in article PMC7614683, “A small molecule PI3Kα activator for cardioprotection and neuroregeneration” (Nature, 2023).
Read-outs that look alike come from different tables or passages of the source.

Key:
Experiment in all cases: SelectScreen Z-LYTE kinase activity assay (SI Table 6)
Assay type in all cases: biochemical
[1] = molecular target: protein kinases of the Z-LYTE panel (Homo sapiens, UniProt P00533, L858R/T790M)
Description: (§1) 133 protein kinases and 7 lipid kinases were counterscreened, with 1938 used at 1 μM, using the Adapta, Lantha and Z-LYTE assays (SelectScreen Kinase Profiling Service; Thermofisher – experimental details of these assays can be found here: https://www.thermofisher.com/uk/en/home/industrial/pharma-biopharma/drug-discovery-development/target-and-lead-identification-and-validation/kinasebiology/kinase-activity-assays.html. The tree represention in KinMap[59] generated courtesy of Cell Signaling Technology, Inc. (www.cellsignal.com). mTORC1 (mTOR/RAPTOR/LST8) protein complex and ATM kinase and substrates were produced as previously described[57],[60]. Screening of 1938 was conducted using SuperSep Phos-Tag 50 μmol/l 100 x 100 x 6.6 mm 17-well (192-18001/199-18011) gels. For ATM assays, 100 nM ATM was incubated for 30 min at 30°C with 5 μM GST-p53 and 1 mM ATP, in the absence or presence of 200 μM 1938 in ATM Kinase Buffer (50 mM HEPES pH 7.5, 100 mM NaCl, 10% glycerol, 2 mM […], 5 mM MgCl2). As a positive control for ATM activation, the same reaction was carried out with 100 nM ATM/5 μM GST-p53/1 mM ATP in the presence of 100 nM Mre11-Rad50-Nbs1 (MRN) complex, a known activator of ATM[61]. For mTORC1 assays, 50 nM mTORC1 complex (mTOR/LST8/RAPTOR) was incubated for 3 h at 30°C with 15 μM 4E-BP1, 10 mM MgCl2 and 250 μM ATP, in the absence or presence of 200 μM 1938. As a ‘positive’ control, a higher concentration (150 nM) of mTORC1 complex (mTOR/LST8/RAPTOR) was incubated for 3 h at 30°C with 15 μM 4E-BP1, 10 mM MgCl2 and 250 μM ATP. Kinase reactions were quenched by addition of SDS-PAGE Loading Buffer (as per manufacturer’s instructions) and freezing at -20°C before being run on the Phos-tag gels at 150 V for 90 min. Gels were then stained using InstantBlue™ Coomassie, and quantified using BioRad Image Lab Software. Kinase assays were carried out in triplicate.

[2] = molecular target: protein kinases of the Z-LYTE panel (Homo sapiens, UniProt P04049, Y340D/Y341D); conditions: RAF1 (cRAF) Y340D Y341D, 1000 nM, [ATP] 100 μM
Description: as §1

[3] = molecular target: protein kinases of the Z-LYTE panel (Homo sapiens, UniProt P07332)
Chain of protein kinases of the Z-LYTE panel (Homo sapiens, UniProt P07332) (P07332 whole entry): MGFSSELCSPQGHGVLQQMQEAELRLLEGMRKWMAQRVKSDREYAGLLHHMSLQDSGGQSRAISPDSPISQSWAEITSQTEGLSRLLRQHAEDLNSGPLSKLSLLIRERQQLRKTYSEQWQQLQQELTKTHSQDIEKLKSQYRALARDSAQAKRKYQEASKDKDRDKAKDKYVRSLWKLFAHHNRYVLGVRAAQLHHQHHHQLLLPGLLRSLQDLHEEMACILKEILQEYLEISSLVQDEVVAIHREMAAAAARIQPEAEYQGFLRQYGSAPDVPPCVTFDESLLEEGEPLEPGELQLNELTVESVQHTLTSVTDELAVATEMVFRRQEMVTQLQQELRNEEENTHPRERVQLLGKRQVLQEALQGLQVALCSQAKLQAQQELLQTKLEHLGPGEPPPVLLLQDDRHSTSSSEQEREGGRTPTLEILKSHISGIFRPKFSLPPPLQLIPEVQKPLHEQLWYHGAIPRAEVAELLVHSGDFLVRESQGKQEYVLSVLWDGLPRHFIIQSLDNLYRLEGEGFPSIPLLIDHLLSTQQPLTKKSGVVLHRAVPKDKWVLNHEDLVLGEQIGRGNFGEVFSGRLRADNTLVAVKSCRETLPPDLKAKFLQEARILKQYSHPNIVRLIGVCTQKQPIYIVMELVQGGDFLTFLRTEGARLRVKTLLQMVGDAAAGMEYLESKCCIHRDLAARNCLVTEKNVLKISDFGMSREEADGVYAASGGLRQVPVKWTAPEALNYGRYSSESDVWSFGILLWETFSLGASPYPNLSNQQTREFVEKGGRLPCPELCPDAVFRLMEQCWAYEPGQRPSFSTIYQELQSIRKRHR
Description: as §1

[4] = molecular target: protein kinases of the Z-LYTE panel (Homo sapiens, UniProt P07948)
Chain of protein kinases of the Z-LYTE panel (Homo sapiens, UniProt P07948) (P07948 whole entry): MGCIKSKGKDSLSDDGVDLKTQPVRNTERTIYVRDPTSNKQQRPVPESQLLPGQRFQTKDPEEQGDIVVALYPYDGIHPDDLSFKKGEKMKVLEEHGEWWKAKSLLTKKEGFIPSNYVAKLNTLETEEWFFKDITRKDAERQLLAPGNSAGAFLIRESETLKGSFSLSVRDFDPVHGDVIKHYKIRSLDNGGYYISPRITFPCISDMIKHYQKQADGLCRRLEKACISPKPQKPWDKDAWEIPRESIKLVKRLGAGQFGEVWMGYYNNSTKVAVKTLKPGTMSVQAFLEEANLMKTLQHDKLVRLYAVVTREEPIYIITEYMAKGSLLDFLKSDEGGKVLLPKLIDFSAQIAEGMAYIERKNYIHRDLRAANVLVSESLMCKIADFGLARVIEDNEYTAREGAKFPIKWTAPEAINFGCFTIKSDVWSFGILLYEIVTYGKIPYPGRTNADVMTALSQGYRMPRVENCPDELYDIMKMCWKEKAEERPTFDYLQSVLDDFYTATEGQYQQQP
Description: as §1

[5] = molecular target: protein kinases of the Z-LYTE panel (Homo sapiens, UniProt P07949, V804L)
Description: as §1

[6] = molecular target: protein kinases of the Z-LYTE panel (Homo sapiens, UniProt P16591)
Chain of protein kinases of the Z-LYTE panel (Homo sapiens, UniProt P16591) (P16591 whole entry): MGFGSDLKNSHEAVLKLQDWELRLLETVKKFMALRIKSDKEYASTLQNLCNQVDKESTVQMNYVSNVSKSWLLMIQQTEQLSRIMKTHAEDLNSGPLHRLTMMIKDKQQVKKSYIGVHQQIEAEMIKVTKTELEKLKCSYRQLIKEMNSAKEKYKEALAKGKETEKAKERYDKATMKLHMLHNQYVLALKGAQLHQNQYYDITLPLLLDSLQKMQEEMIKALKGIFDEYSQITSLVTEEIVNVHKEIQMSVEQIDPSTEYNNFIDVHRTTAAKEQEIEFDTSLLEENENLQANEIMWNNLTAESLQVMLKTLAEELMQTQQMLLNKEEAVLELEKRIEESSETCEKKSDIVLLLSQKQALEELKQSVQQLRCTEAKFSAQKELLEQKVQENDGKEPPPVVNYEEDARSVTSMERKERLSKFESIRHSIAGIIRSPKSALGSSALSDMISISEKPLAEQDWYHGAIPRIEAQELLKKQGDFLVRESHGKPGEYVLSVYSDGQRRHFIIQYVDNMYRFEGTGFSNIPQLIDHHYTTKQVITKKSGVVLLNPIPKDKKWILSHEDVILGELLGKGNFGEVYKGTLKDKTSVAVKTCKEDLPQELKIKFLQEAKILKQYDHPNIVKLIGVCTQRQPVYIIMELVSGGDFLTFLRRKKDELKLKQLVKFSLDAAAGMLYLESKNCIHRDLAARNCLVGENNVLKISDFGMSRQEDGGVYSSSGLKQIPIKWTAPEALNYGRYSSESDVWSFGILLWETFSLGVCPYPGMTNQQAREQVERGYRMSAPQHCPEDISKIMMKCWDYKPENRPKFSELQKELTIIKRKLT
Description: as §1

[7] = molecular target: protein kinases of the Z-LYTE panel (Homo sapiens, UniProt P28482)
Chain of protein kinases of the Z-LYTE panel (Homo sapiens, UniProt P28482) (P28482 whole entry): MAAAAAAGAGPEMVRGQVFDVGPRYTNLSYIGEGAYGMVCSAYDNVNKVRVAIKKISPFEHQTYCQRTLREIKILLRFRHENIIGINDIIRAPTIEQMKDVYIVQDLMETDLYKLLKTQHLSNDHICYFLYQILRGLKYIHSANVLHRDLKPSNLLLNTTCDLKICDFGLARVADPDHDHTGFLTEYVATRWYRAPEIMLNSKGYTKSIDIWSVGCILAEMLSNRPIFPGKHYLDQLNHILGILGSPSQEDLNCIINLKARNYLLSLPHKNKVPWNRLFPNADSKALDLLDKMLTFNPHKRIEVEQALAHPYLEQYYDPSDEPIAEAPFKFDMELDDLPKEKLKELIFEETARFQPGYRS
Description: as §1

[8] = molecular target: protein kinases of the Z-LYTE panel (Homo sapiens, UniProt P49137)
Description: as §1

[9] = molecular target: protein kinases of the Z-LYTE panel (Homo sapiens, UniProt P49759)
Description: as §1

[10] = molecular target: protein kinases of the Z-LYTE panel (Homo sapiens, UniProt P49761)
Chain of protein kinases of the Z-LYTE panel (Homo sapiens, UniProt P49761) (P49761 whole entry): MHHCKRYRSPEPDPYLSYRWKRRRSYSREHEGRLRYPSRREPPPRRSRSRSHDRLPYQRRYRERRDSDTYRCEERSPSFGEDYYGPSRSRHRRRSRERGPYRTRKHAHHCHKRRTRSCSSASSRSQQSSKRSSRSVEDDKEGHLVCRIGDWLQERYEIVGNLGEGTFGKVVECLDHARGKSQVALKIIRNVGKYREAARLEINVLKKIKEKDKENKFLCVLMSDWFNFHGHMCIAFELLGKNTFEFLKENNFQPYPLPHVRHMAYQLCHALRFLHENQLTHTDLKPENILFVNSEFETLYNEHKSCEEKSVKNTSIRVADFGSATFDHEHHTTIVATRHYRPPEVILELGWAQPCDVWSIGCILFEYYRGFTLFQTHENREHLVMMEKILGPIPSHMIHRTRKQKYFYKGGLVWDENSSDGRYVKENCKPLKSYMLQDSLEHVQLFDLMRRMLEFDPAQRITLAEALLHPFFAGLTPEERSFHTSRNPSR
Description: as §1

[11] = molecular target: protein kinases of the Z-LYTE panel (Homo sapiens, UniProt Q16288)
Description: as §1

[12] = molecular target: protein kinases of the Z-LYTE panel (Homo sapiens, UniProt Q16539)
Description: as §1

[13] = molecular target: protein kinases of the Z-LYTE panel (Homo sapiens, UniProt Q96SB4)
Chain of protein kinases of the Z-LYTE panel (Homo sapiens, UniProt Q96SB4) (Q96SB4 whole entry): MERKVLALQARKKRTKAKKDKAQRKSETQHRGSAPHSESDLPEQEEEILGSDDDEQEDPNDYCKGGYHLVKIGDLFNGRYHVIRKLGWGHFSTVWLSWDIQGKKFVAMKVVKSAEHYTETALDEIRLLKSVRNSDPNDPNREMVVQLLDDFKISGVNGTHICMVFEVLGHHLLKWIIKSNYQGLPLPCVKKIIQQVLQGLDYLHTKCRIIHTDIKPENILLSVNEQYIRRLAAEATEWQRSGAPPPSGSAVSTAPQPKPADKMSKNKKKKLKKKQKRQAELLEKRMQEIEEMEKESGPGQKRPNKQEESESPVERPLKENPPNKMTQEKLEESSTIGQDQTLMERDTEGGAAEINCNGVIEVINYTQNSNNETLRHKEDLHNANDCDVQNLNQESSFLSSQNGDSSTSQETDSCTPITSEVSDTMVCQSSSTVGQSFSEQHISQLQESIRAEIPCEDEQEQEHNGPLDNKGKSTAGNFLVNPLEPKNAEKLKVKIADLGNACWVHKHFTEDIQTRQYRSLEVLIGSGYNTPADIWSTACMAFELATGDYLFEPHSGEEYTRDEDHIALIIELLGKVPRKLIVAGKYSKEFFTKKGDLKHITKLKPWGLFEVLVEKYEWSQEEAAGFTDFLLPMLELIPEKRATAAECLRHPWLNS
Description: as §1

[14] = molecular target: protein kinases of the Z-LYTE panel (Homo sapiens, UniProt Q9P0L2)
Description: as §1

Chain of protein kinases of the Z-LYTE panel (Homo sapiens, UniProt P00533, L858R/T790M) (P00533 25-1210 T790M/L858R): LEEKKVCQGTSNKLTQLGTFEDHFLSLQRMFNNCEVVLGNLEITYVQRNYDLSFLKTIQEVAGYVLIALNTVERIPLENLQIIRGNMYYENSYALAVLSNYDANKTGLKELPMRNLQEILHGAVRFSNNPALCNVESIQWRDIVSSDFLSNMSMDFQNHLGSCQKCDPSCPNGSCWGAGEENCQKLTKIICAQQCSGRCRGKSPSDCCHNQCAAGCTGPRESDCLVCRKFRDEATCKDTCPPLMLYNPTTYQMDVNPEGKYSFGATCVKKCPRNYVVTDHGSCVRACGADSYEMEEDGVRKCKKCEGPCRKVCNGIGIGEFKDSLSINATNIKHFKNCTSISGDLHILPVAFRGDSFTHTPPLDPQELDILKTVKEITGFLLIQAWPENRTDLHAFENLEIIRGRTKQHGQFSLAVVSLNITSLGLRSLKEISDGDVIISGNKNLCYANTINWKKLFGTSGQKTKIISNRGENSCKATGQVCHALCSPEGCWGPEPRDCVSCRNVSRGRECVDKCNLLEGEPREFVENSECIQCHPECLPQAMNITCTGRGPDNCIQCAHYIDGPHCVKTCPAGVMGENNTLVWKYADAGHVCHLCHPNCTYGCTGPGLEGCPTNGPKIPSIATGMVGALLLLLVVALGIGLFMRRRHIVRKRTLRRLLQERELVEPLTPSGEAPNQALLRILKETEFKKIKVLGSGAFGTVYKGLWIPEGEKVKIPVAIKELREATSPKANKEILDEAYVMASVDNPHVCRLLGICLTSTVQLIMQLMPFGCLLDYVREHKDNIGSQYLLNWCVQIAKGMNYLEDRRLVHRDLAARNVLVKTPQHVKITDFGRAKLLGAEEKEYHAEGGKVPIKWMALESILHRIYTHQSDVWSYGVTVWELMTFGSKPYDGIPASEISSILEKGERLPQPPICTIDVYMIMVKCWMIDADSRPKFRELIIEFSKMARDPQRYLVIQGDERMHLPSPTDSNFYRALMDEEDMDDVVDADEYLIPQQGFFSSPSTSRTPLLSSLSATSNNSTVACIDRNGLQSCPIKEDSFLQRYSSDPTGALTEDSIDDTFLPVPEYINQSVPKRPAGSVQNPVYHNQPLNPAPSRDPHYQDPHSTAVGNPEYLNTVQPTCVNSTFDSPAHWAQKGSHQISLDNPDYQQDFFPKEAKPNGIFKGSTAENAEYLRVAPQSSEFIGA

`CCN1CCN(c2ccc(Nc3cc(Nc4cccc5c4N(C(C)=O)CC5)ccn3)cc2)CC1` [Compound 1938] was tested, and the inhibition at 1 µM ([1]; read-out: % Inhibition Point 1) was 12%, the inhibition at 1 µM ([1]; read-out: % Inhibition Point 2) was 12% and the inhibition at 1 µM ([1]; read-out: % Inhibition mean) was 12%. For the same compound, the inhibition at 1 µM ([2]; read-out: % Inhibition Point 1) was 5.53%, the inhibition at 1 µM ([2]; read-out: % Inhibition Point 2) was 8% and the inhibition at 1 µM ([2]; read-out: % Inhibition mean) was 6.59%. The inhibition at 1 µM ([3]; read-out: % Inhibition Point 1) was 7%, the inhibition at 1 µM ([3]; read-out: % Inhibition Point 2) was 8% and the inhibition at 1 µM ([3]; read-out: % Inhibition mean) was 7.57%. For the same compound, the inhibition at 1 µM ([4]; read-out: % Inhibition Point 1) was 11%, the inhibition at 1 µM ([4]; read-out: % Inhibition Point 2) was 9% and the inhibition at 1 µM ([4]; read-out: % Inhibition mean) was 10%. For the same compound, the inhibition at 1 µM ([5]; read-out: % Inhibition Point 1) was 11%, the inhibition at 1 µM ([5]; read-out: % Inhibition Point 2) was 11% and the inhibition at 1 µM ([5]; read-out: % Inhibition mean) was 11%. The inhibition at 1 µM ([6]; read-out: % Inhibition Point 1) was -5.31%, the inhibition at 1 µM ([6]; read-out: % Inhibition Point 2) was -2.44% and the inhibition at 1 µM ([6]; read-out: % Inhibition mean) was -4%. It also gave an inhibition at 1 µM ([7]; read-out: % Inhibition Point 1) of -0.368%, an inhibition at 1 µM ([7]; read-out: % Inhibition Point 2) of 13% and an inhibition at 1 µM ([7]; read-out: % Inhibition mean) of 6.48%. It also gave an inhibition at 1 µM ([8]; read-out: % Inhibition Point 1) of -0.0637%, an inhibition at 1 µM ([8]; read-out: % Inhibition Point 2) of -0.692% and an inhibition at 1 µM ([8]; read-out: % Inhibition mean) of -0.378%. It also gave an inhibition at 1 µM ([9]; read-out: % Inhibition Point 1) of 2.18%, an inhibition at 1 µM ([9]; read-out: % Inhibition Point 2) of 6% and an inhibition at 1 µM ([9]; read-out: % Inhibition mean) of 4%. The inhibition at 1 µM ([10]; read-out: % Inhibition Point 1) was -1%, the inhibition at 1 µM ([10]; read-out: % Inhibition Point 2) was 0.422% and the inhibition at 1 µM ([10]; read-out: % Inhibition mean) was -0.267%. It also gave an inhibition at 1 µM ([11]; read-out: % Inhibition Point 1) of 12%, an inhibition at 1 µM ([11]; read-out: % Inhibition Point 2) of 14% and an inhibition at 1 µM ([11]; read-out: % Inhibition mean) of 13%. For the same compound, the inhibition at 1 µM ([12]; read-out: % Inhibition Point 1) was 9%, the inhibition at 1 µM ([12]; read-out: % Inhibition Point 2) was 9% and the inhibition at 1 µM ([12]; read-out: % Inhibition mean) was 9%. For the same compound, the inhibition at 1 µM ([13]; read-out: % Inhibition Point 1) was 1.56%, the inhibition at 1 µM ([13]; read-out: % Inhibition Point 2) was 1.35% and the inhibition at 1 µM ([13]; read-out: % Inhibition mean) was 1.46%. It also gave an inhibition at 1 µM ([14]; read-out: % Inhibition Point 1) of 5.55%, an inhibition at 1 µM ([14]; read-out: % Inhibition Point 2) of 3.46% and an inhibition at 1 µM ([14]; read-out: % Inhibition mean) of 4.5%.
